From patent US10131652B2, “Pyrimidinyloxy benzene derivatives as herbicides” (E. I. DU PONT DE NEMOURS AND COMPANY, priority 2014, dated 2018)

Columns and labels:
Assay type in all cases: in vivo
[1] = test system: giant foxtail (Setaria faberii); assay: Test D pre-/postemergence plant response; details: Postemergence; for Foxtail, Giant plant response rating: scale 0 to 100 (0 no effect, 100 complete control); for Plant response rating, Foxtail, Giant: scale 0 to 100, 0 no effect, 100 complete control
Summary of the method: (§1)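 0 = no effect, 100 = complete control: plants were scored this way by visual comparison with controls 13 to 15 days post-treatment. Application was preemergence to sown loam/sand pots or postemergence to 2–18 cm seedlings in peat-based mix.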

[2] = test system: pigweed (Amaranthus retroflexus); assay: Test D pre-/postemergence plant response; details: Postemergence; for Plant response rating, Pigweed: scale 0 to 100, 0 no effect, 100 complete control
Summary of the method: as §1

[3] = test system: lambsquarters (Chenopodium album); assay: Test D pre-/postemergence plant response; details: Postemergence; for Plant response rating, Lambsquarters: scale 0 to 100, 0 no effect, 100 complete control
Summary of the method: as §1

corn (Zea mays) = assay: Test D pre-/postemergence plant response; details: Postemergence; for Corn plant response rating: scale 0 to 100 (0 no effect, 100 complete control); for Plant response rating, Corn: scale 0 to 100, 0 no effect, 100 complete control
Summary of the method: as §1

[4] = test system: morningglory (Ipomoea coccinea); assay: Test D pre-/postemergence plant response; details: Postemergence; for Plant response rating, Morningglory: scale 0 to 100, 0 no effect, 100 complete control
Summary of the method: as §1

[5] = test system: velvetleaf (Abutilon theophrasti); assay: Test D pre-/postemergence plant response; details: Postemergence; for Plant response rating, Velvetleaf: scale 0 to 100, 0 no effect, 100 complete control
Summary of the method: as §1

[6] = test system: Italian ryegrass (Lolium multiflorum); assay: Test D pre-/postemergence plant response; details: Postemergence; for Plant response rating, Ryegrass, Italian: scale 0 to 100, 0 no effect, 100 complete control
Summary of the method: as §1

[7] = test system: blackgrass (Alopecurus myosuroides); assay: Test D pre-/postemergence plant response; details: Postemergence; for Blackgrass plant response rating: scale 0 to 100 (0 no effect, 100 complete control); for Plant response rating, Blackgrass: scale 0 to 100, 0 no effect, 100 complete control
Summary of the method: as §1

[8] = test system: waterhemp (common waterhemp, Amaranthus rudis); assay: Test D pre-/postemergence plant response; details: Postemergence; for Plant response rating, Waterhemp: scale 0 to 100, 0 no effect, 100 complete control
Summary of the method: as §1

soybean (Glycine max) = assay: Test D pre-/postemergence plant response; details: Postemergence; for Plant response rating, Soybean: scale 0 to 100, 0 no effect, 100 complete control
Summary of the method: as §1

[9] = test system: large (Lg) crabgrass (Digitaria sanguinalis); assay: Test D pre-/postemergence plant response; details: Postemergence; for Crabgrass, Large plant response rating: scale 0 to 100 (0 no effect, 100 complete control); for Plant response rating, Crabgrass, Large: scale 0 to 100, 0 no effect, 100 complete control
Summary of the method: as §1

[10] = test system: barnyardgrass (Echinochloa crus-galli); assay: Test D pre-/postemergence plant response; details: Postemergence; for Barnyardgrass plant response rating: scale 0 to 100 (0 no effect, 100 complete control); for Plant response rating, Barnyardgrass: scale 0 to 100, 0 no effect, 100 complete control
Summary of the method: as §1

[11] = test system: ragweed (common ragweed, Ambrosia elatior); assay: Test B pre-/postemergence plant response
Summary of the method: (§2)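 Steps: plant seeds in loam soil–sand mix; spray soil preemergence, and in parallel spray 2–10 cm one- to two-leaf plants postemergence; hold ~10 days in greenhouse; visually rate injury against untreated controls (0 = no effect, 100 = complete control).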

kochia (Kochia scoparia) = assay: Test B pre-/postemergence plant response
Summary of the method: as §2

[12] = test system: Italian ryegrass (Lolium multiflorum); assay: Test B pre-/postemergence plant response
Summary of the method: as §2

[13] = 31 g ai/ha, scale 0 to 100 (0 no effect, 100 complete control)
[14] = 31 g ai/ha, Preemergence, 0 to 100 scale where 0 is no effect and 100 is complete control
[15] = 125 g ai/ha, postemergence, 0 to 100 scale, 0 no effect, 100 complete control
[16] = Preemergence, 125 g ai/ha, 0 to 100 scale (0 no effect, 100 complete control)

Fc1cccc(Oc2ncc(Cl)cn2)c1-c1cc(C2CC2)on1 [Compound 130]
Foxtail, Giant plant response rating ([1]; 16 g ai/ha): 5 | Foxtail, Giant plant response rating ([1]; 31 g ai/ha): 5 | Plant response rating, Foxtail, Giant ([1]; 62 g ai/ha): 10 | Plant response rating, Foxtail, Giant ([1]; 125 g ai/ha): 25 | Pigweed plant response rating [2, 13]: 95 | Plant response rating, Pigweed ([2]; 62 g ai/ha): 98 | Plant response rating, Pigweed ([2]; 125 g ai/ha): 98 | Lambsquarters plant response rating [3, 13]: 100 | Plant response rating, Lambsquarters ([3]; 62 g ai/ha): 100 | Plant response rating, Lambsquarters ([3]; 125 g ai/ha): 100 | Corn plant response rating (corn (Zea mays); 16 g ai/ha): 10 | Corn plant response rating (corn (Zea mays); 31 g ai/ha): 25 | Plant response rating, Corn (corn (Zea mays); 62 g ai/ha): 10 | Plant response rating, Corn (corn (Zea mays); 125 g ai/ha): 10 | Morningglory plant response rating [4, 13]: 80 | Plant response rating, Morningglory ([4]; 62 g ai/ha): 85 | Plant response rating, Morningglory ([4]; 125 g ai/ha): 85 | Velvetleaf plant response rating [5, 13]: 80 | Plant response rating, Velvetleaf ([5]; 62 g ai/ha): 75 | Plant response rating, Velvetleaf ([5]; 125 g ai/ha): 100 | Ryegrass, Italian plant response rating [6, 13]: 5 | Plant response rating, Ryegrass, Italian ([6]; 62 g ai/ha): 10 | Plant response rating, Ryegrass, Italian ([6]; 125 g ai/ha): 15 | Blackgrass plant response rating ([7]; 16 g ai/ha): 0 | Blackgrass plant response rating ([7]; 31 g ai/ha): 5 | Plant response rating, Blackgrass ([7]; 62 g ai/ha): 20 | Plant response rating, Blackgrass ([7]; 125 g ai/ha): 30 | Waterhemp plant response rating [8, 13]: 85 | Plant response rating, Waterhemp ([8]; 62 g ai/ha): 98 | Plant response rating, Waterhemp ([8]; 125 g ai/ha): 98 | Soybean plant response rating (soybean (Glycine max); [13]): 55 | Plant response rating, Soybean (soybean (Glycine max); 62 g ai/ha): 98 | Plant response rating, Soybean (soybean (Glycine max); 125 g ai/ha): 95 | Crabgrass, Large plant response rating ([9]; 16 g ai/ha): 10 | Crabgrass, Large plant response rating ([9]; 31 g ai/ha): 20 | Plant response rating, Crabgrass, Large ([9]; 62 g ai/ha): 20 | Plant response rating, Crabgrass, Large ([9]; 125 g ai/ha): 25 | Barnyardgrass plant response rating ([10]; 16 g ai/ha): 10 | Barnyardgrass plant response rating ([10]; 31 g ai/ha): 10 | Plant response rating, Barnyardgrass ([10]; 62 g ai/ha): 10 | Plant response rating, Barnyardgrass ([10]; 125 g ai/ha): 25 | Plant response rating, Ragweed [11, 14]: 10 | Plant response rating, Ragweed [11, 15]: 60 | Ragweed plant response rating [11, 16]: 20 | Plant response rating, Kochia (kochia (Kochia scoparia); [14]): 50 | Plant response rating, Kochia (kochia (Kochia scoparia); [15]): 90 | Kochia plant response rating (kochia (Kochia scoparia); [16]): 70 | Plant response rating, Ryegrass, Italian [12, 14]: 20 | Plant response rating, Ryegrass, Italian [12, 15]: 60 | Ryegrass, Italian plant response rating [12, 16]: 50
